Source: ChEMBL document CHEMBL4376892, “Identification of Parthenolide Dimers as Activators of Pyruvate Kinase M2 in Xenografts of Glioblastoma Multiforme in Vivo” (J Med Chem, 2020)
Active and inactive are the calls of the source. No cut-off for these calls is given here.

How the values were obtained:
[1] = tested on: U-87MG ATCC; assay: Effect on IKK-beta protein expression in human U87 cells at 0.2 to 0.5 uM after 48 hrs by Western blot analysis; assay type: functional, cell-based
[2] = tested on: U-118-MG; assay: Antiinvasive activity against human U118MG cells transfected with lentivirus expressing shNC at 2 uM incubated for 48 hrs by crystal violet staining based transwell assay; assay type: functional, cell-based
[3] = molecular target: T1, Pyruvate kinase PKM (Homo sapiens, UniProt P14618); assay: Activation of PKM2 in human U118MG cells assessed as increase in E-cadherin expression at 1 to 2 uM after 24 hrs by Western blot analysis; assay type: cell-based
T1 sequence (P14618 2-531 limits assumed): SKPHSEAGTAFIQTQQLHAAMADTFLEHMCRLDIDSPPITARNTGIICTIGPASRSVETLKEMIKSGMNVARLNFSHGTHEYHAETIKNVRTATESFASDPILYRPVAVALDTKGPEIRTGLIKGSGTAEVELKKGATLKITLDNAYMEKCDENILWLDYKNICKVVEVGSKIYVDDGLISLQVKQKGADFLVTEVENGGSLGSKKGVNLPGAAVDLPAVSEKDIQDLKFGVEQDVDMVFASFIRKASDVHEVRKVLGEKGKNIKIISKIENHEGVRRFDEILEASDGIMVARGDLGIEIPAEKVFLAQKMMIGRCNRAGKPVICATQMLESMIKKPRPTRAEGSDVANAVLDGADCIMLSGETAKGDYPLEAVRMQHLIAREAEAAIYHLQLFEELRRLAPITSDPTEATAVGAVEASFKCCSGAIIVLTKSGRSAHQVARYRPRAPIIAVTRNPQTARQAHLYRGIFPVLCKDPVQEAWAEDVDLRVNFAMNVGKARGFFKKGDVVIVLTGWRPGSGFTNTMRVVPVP

[4] = tested on: U-87 MG; assay: Antimetastatic activity against human U87 cells assessed as reduction in cell migration at 2 uM after 24 hrs by crystal violet staining based transwell assay; assay type: functional; conditions: U-87MG ATCC
[5] = molecular target: T1, Pyruvate kinase PKM; assay: Activation of PKM2 in human U118MG cells assessed as reduction in bcl-xl expression at 1 to 2 uM after 48 hrs by Western blot analysis; assay type: cell-based
[6] = tested on: U-87 MG; assay: Induction of apoptosis in human U87 cells transfected with lentivirus expressing shPKM2 assessed as viable cells after 48 hrs by Annexin-V-FITC/PI-staining based flow cytometric analysis (reference value: 97.3%); assay type: functional, U-87MG ATCC
[7] = molecular target: T1, Pyruvate kinase PKM; assay: Activation of PKM2 in human U87 cells assessed as reduction in bcl-xl expression at 1 to 2 uM after 48 hrs by Western blot analysis; assay type: cell-based; conditions: U-87MG ATCC
[8] = molecular target: T1, Pyruvate kinase PKM; assay: Activation of PKM2 in human U87 cells assessed as inhibition of STAT3 protein expression at 5 uM after 48 hrs by Western blot analysis; assay type: cell-based; conditions: U-87MG ATCC
[9] = tested on: U-118-MG; assay: Induction of apoptosis in human U118MG cells assessed as necrotic cells after 48 hrs by Annexin-V-FITC/PI-staining based flow cytometric analysis (reference value: 1.37%); assay type: functional
[10] = molecular target: T1, Pyruvate kinase PKM; assay: Activation of PKM2 in human U87 cells assessed as reduction in bcl2 expression at 1 to 2 uM after 48 hrs by Western blot analysis; assay type: cell-based; conditions: U-87MG ATCC
[11] = tested on: U-87 MG; assay: Antiproliferative activity against human U87 cells transfected with lentivirus expressing shPKM2 assessed as reduction in cell viability after 24 hrs by MTT assay; assay type: functional, cell-based, U-87MG ATCC
[12] = tested on: U-87 MG; assay: Induction of apoptosis in human U87 cells transfected with lentivirus expressing shNC assessed as early apoptotic cells after 48 hrs by Annexin-V-FITC/PI-staining based flow cytometric analysis (reference value: 0.588%); assay type: functional, U-87MG ATCC
[13] = tested on: U-118-MG; assay: Effect on IKK-beta protein expression in human U118MG cells at 0.2 to 0.5 uM after 48 hrs by Western blot analysis; assay type: functional, cell-based
[14] = molecular target: T1, Pyruvate kinase PKM; assay: Activation of PKM2 in human U87 cells assessed as increase in E-cadherin expression at 1 to 2 uM after 24 hrs by Western blot analysis; assay type: cell-based; conditions: U-87MG ATCC
[15] = tested on: U-87 MG; assay: Inhibition of colony formation in human U87 cells after 7 days; assay type: functional, cell-based; conditions: U-87MG ATCC
[16] = tested on: U-118-MG; assay: Inhibition of colony formation in human U118MG cells after 7 days; assay type: functional, cell-based
[17] = tested on: U-87 MG; assay: Induction of apoptosis in human U87 cells assessed as necrotic cells after 48 hrs by Annexin-V-FITC/PI-staining based flow cytometric analysis (reference value: 0.1%); assay type: functional, U-87MG ATCC
[18] = tested on: U-118-MG; assay: Effect on total PKM2 protein expression in human U118MG cells at 0.5 to 2 uM after 48 hrs by Western blot analysis; assay type: functional, cell-based
[19] = tested on: U-87MG ATCC; assay: Effect on total PKM2 protein expression in human U87 cells at 0.5 to 5 uM after 48 hrs by Western blot analysis; assay type: functional, cell-based
[20] = tested on: U-118-MG; assay: Induction of apoptosis in human U118MG cells after 48 hrs by Annexin-V-FITC/PI-staining based flow cytometric analysis; assay type: functional, cell-based
[21] = tested on: U-118-MG; assay: Antimigratory activity against human U118MG cells transfected with lentivirus expressing shNC at 2 uM incubated for 48 hrs by crystal violet staining based transwell assay; assay type: functional, cell-based
[22] = molecular target: T1, Pyruvate kinase PKM; assay: Activation of PKM2 in human U118MG cells assessed as reduction in bcl2 expression at 1 to 2 uM after 48 hrs by Western blot analysis; assay type: cell-based
[23] = tested on: U-87 MG; assay: Induction of apoptosis in human U87 cells assessed as late apoptotic cells after 48 hrs by Annexin-V-FITC/PI-staining based flow cytometric analysis (reference value: 1.22%); assay type: functional, U-87MG ATCC
[24] = tested on: U-118-MG; assay: Induction of apoptosis in human U118MG cells transfected with lentivirus expressing shNC assessed as late apoptotic cells after 48 hrs by Annexin-V-FITC/PI-staining based flow cytometric analysis (reference value: 0.334%); assay type: functional
[25] = molecular target: T1, Pyruvate kinase PKM; assay: Covalent binding affinity to recombinant human N-terminal 6His-tagged PKM2 expressed in Escherichia coli BL21 Cells after 2 hrs by LC-MS/MS analysis
[26] = tested on: U-118-MG; assay: Antiproliferative activity against human U118MG cells transfected with lentivirus expressing shPKM2 assessed as as reduction in cell viability after 24 hrs by MTT assay; assay type: functional, cell-based
[27] = tested on: U-87 MG; assay: Induction of apoptosis in human U87 cells transfected with lentivirus expressing shPKM2 assessed as early apoptotic cells after 48 hrs by Annexin-V-FITC/PI-staining based flow cytometric analysis (reference value: 0.88%); assay type: functional, U-87MG ATCC
[28] = tested on: U-118-MG; assay: Induction of PDK4 protein expression in human U118MG cells at 2 uM after 48 hrs by Western blot analysis; assay type: functional, cell-based
[29] = tested on: U-118-MG; assay: Antiproliferative activity against human U118MG cells transfected with lentivirus expressing shNC assessed as reduction in cell viability after 24 hrs by MTT assay; assay type: functional, cell-based
[30] = tested on: U-87 MG; assay: Antiinvasive activity against human U87 cells transfected with lentivirus expressing shPKM2 at 2 uM incubated for 48 hrs by crystal violet staining based transwell assay; assay type: functional, cell-based; conditions: U-87MG ATCC
[31] = tested on: U-118-MG; assay: Antiinvasive activity against human U118MG cells transfected with lentivirus expressing shPKM2 at 2 uM incubated for 48 hrs by crystal violet staining based transwell assay; assay type: functional, cell-based
[32] = molecular target: T1, Pyruvate kinase PKM; assay: Activation of recombinant human N-terminal 6His-tagged PKM2 expressed in Escherichia coli BL21 cells at 10 uM after 30 mins by fluorescence based analysis relative to control
[33] = molecular target: T1, Pyruvate kinase PKM; assay: Activation of PKM2 in human U118MG cells assessed as reduction in vimentin expression at 1 to 2 uM after 24 hrs by Western blot analysis; assay type: cell-based
[34] = tested on: U-118-MG; assay: Induction of apoptosis in human U118MG cells transfected with lentivirus expressing shNC assessed as early apoptotic cells after 48 hrs by Annexin-V-FITC/PI-staining based flow cytometric analysis (reference value: 2.56%); assay type: functional
[35] = tested on: SF-126; assay: Antiproliferative activity against human SF126 cells assessed as reduction in cell viability after 72 hrs by MTT assay; assay type: functional, cell-based; conditions: SF-126, 72 h
[36] = tested on: U-87 MG; assay: Induction of apoptosis in human U87 cells transfected with lentivirus expressing shNC assessed as late apoptotic cells after 48 hrs by Annexin-V-FITC/PI-staining based flow cytometric analysis (reference value: 0.608%); assay type: functional, U-87MG ATCC
[37] = tested on: U-87 MG; assay: Antiproliferative activity against human U87 cells transfected with lentivirus expressing shNC assessed as reduction in cell viability after 24 hrs by MTT assay; assay type: functional, cell-based, U-87MG ATCC
[38] = molecular target: T1, Pyruvate kinase PKM; assay: Activation of PKM2 in human U118MG cells assessed as increase in PKM2 tetramer formation at 0.5 to 1 uM after 48 hrs by chemical cross-linking based Western blot analysis; assay type: cell-based
[39] = molecular target: T1, Pyruvate kinase PKM; assay: Inhibition of PKM2 dimer nuclear translocation in human U118MG cells assessed as reduction in PKM2 accumulation in nucleus at 0.5 to 1 uM after 48 hrs by Western blot analysis; assay type: cell-based

Activity [3]: Active | Activity [5]: Active | Activity [7]: Active | Activity [8]: Active | Activity [10]: Active | IC50 [11]: 1.76 µM | Activity [14]: Active | Activity [22]: Active | Activity [25]: Active | fold change (FC) [32]: > 2 | Activity [33]: Active | IC50 [37]: 7.39 µM | Activity [38]: Active | inhibition [39]: Active
SMILES: C=C1C(=O)O[C@H]2[C@H]1CC/C(C(=O)OCCOCCOC(=O)/C1=C/CC[C@@]3(C)O[C@H]3[C@H]3OC(=O)C(=C)[C@@H]3CC1)=C\CC[C@@]1(C)O[C@@H]21
Activity [1]: inactive | Activity [2]: Active | Activity [4]: Active | Activity [6]: 93% | Activity [9]: 6.01% | Activity [12]: 9.99% | Activity [13]: inactive | inhibition [15]: Dose-dependent effect | inhibition [16]: Dose-dependent effect | Activity [17]: 0.256% | Activity [18]: inactive | Activity [19]: inactive | Activity [20]: Dose-dependent effect | Activity [21]: Active | Activity [23]: 2.82% | Activity [24]: 16.4% | IC50 [26]: 1.98 µM | Activity [27]: 3.74% | Activity [28]: Active | IC50 [29]: 1.04 µM | Activity [30]: inactive | Activity [31]: inactive | Activity [34]: 47.1% | IC50 [35]: 7.49 µM | Activity [36]: 3.62%
